Measurements: the supplement of paper PMC10307832

Tests used:
Assay in all cases: relative viability (nuclei count vs DMSO), 5 days (fraction); higher = more cells survive
[1] = system: NCI-H1915
Summary of the method: (§1)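 Relative viability equals treated-well nuclei counts divided by vehicle-well nuclei counts. Counts came from 4× images of lung cancer cell lines grown in 1536-well plates for 5 days after pin-tool dosing on the day after seeding. Dosing used one drug alone or a fixed anchor-drug dose plus five library-drug doses (not always all listed) in √10 steps, and values are medians of duplicate plates.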

[2] = system: HCC-15
Summary of the method: as §1

[3] = system: NCI-H1651
Summary of the method: as §1

[4] = system: HARA
Summary of the method: as §1

[5] = system: HCC-78
Summary of the method: as §1

[6] = system: PC-14
Summary of the method: as §1

[7] = system: NCI-H2347
Summary of the method: as §1

[8] = system: LC-2-ad
Summary of the method: as §1

[9] = system: LU99A
Summary of the method: as §1

[10] = system: NCI-H838
Summary of the method: as §1

[11] = system: NCI-H2023
Summary of the method: as §1

[12] = system: SW 1573
Summary of the method: as §1

[13] = system: NCI-H1355
Summary of the method: as §1

[14] = system: NCI-H2126
Summary of the method: as §1

[15] = system: COR-L23
Summary of the method: as §1

[16] = system: ABC-1
Summary of the method: as §1

[17] = system: NCI-H2085
Summary of the method: as §1

[18] = system: EPLC-272H
Summary of the method: as §1

[19] = system: NCI-H1993
Summary of the method: as §1

[20] = system: NCI-H650
Summary of the method: as §1

[21] = system: NCI-H358
Summary of the method: as §1

[22] = system: UMC-11
Summary of the method: as §1

For `O=C(O)c1ccc(-c2c[nH]c3ncc(-c4ccccc4)cc23)cc1C1CCCC1` + CS(=O)(=O)CCNCc1ccc(-c2ccc3ncnc(Nc4ccc(OCc5cccc(F)c5)c(Cl)c4)c3c2)o1 [Lapatinib] (partner 2 µM), which relative viability ([1]; first compound 0.04 µM) is on record?
Its relative viability is 1.05.

What about the relative viability ([1]; first compound 0.1265 µM) of the same molecule?
Its relative viability is 1.03.

What about the relative viability ([1]; first compound 0.4 µM) of the same molecule?
The relative viability was 0.972.

What about the relative viability ([1]; first compound 1.265 µM) of the same molecule?
Its relative viability is 0.743.

What about the relative viability ([2]; first compound 0.04 µM) of the same molecule?
The relative viability was 0.882.

And the relative viability ([2]; first compound 0.1265 µM)?
Its relative viability is 0.987.

And the relative viability ([2]; first compound 0.4 µM)?
The relative viability was 0.838.

What about the relative viability ([2]; first compound 1.265 µM) of the same molecule?
Its relative viability is 0.551.

And the relative viability ([3]; first compound 0.04 µM)?
The relative viability was 0.856.

What about the relative viability ([3]; first compound 0.1265 µM) of the same molecule?
The relative viability was 0.867.

What about the relative viability ([3]; first compound 0.4 µM) of the same molecule?
The relative viability was 0.826.

And the relative viability ([3]; first compound 1.265 µM)?
Its relative viability is 0.472.

What about the relative viability ([4]; first compound 0.04 µM) of the same molecule?
The relative viability was 0.578.

And the relative viability ([4]; first compound 0.1265 µM)?
Its relative viability is 0.925.

What about the relative viability ([4]; first compound 0.4 µM) of the same molecule?
Its relative viability is 0.802.

And the relative viability ([4]; first compound 1.265 µM)?
Its relative viability is 0.716.

What about the relative viability ([5]; first compound 0.04 µM) of the same molecule?
The relative viability was 0.595.

What about the relative viability ([5]; first compound 0.1265 µM) of the same molecule?
The relative viability was 1.25.

What about the relative viability ([5]; first compound 0.4 µM) of the same molecule?
The relative viability was 0.979.

And the relative viability ([5]; first compound 1.265 µM)?
The relative viability was 0.64.

And the relative viability ([6]; first compound 0.04 µM)?
The relative viability was 0.304.

What about the relative viability ([6]; first compound 0.1265 µM) of the same molecule?
Its relative viability is 0.391.

What about the relative viability ([6]; first compound 0.4 µM) of the same molecule?
Its relative viability is 0.339.

And the relative viability ([6]; first compound 1.265 µM)?
Its relative viability is 0.302.

And the relative viability ([7]; first compound 0.04 µM)?
The relative viability was 0.96.

And the relative viability ([7]; first compound 0.1265 µM)?
Its relative viability is 0.933.

What about the relative viability ([7]; first compound 0.4 µM) of the same molecule?
The relative viability was 0.9.

And the relative viability ([7]; first compound 1.265 µM)?
Its relative viability is 0.881.

What about the relative viability ([8]; first compound 0.04 µM) of the same molecule?
The relative viability was 1.

And the relative viability ([8]; first compound 0.1265 µM)?
The relative viability was 1.02.

What about the relative viability ([8]; first compound 0.4 µM) of the same molecule?
The relative viability was 0.904.

And the relative viability ([8]; first compound 1.265 µM)?
The relative viability was 0.803.

And the relative viability ([9]; first compound 0.04 µM)?
The relative viability was 0.972.

And the relative viability ([9]; first compound 0.1265 µM)?
Its relative viability is 1.2.

What about the relative viability ([9]; first compound 0.4 µM) of the same molecule?
The relative viability was 0.954.

And the relative viability ([9]; first compound 1.265 µM)?
Its relative viability is 0.792.

What about the relative viability ([10]; first compound 0.04 µM) of the same molecule?
Its relative viability is 0.92.

And the relative viability ([10]; first compound 0.1265 µM)?
Its relative viability is 1.4.

What about the relative viability ([10]; first compound 0.4 µM) of the same molecule?
Its relative viability is 1.11.

What about the relative viability ([10]; first compound 1.265 µM) of the same molecule?
Its relative viability is 0.915.

What about the relative viability ([11]; first compound 0.04 µM) of the same molecule?
Its relative viability is 0.915.

What about the relative viability ([11]; first compound 0.1265 µM) of the same molecule?
The relative viability was 0.938.

And the relative viability ([11]; first compound 0.4 µM)?
Its relative viability is 0.779.

And the relative viability ([11]; first compound 1.265 µM)?
The relative viability was 0.511.

And the relative viability ([12]; first compound 0.04 µM)?
Its relative viability is 1.15.

What about the relative viability ([12]; first compound 0.1265 µM) of the same molecule?
Its relative viability is 1.39.

And the relative viability ([12]; first compound 0.4 µM)?
Its relative viability is 1.14.

What about the relative viability ([12]; first compound 1.265 µM) of the same molecule?
The relative viability was 1.09.

And the relative viability ([13]; first compound 0.04 µM)?
Its relative viability is 1.02.

And the relative viability ([13]; first compound 0.1265 µM)?
The relative viability was 1.09.

What about the relative viability ([13]; first compound 0.4 µM) of the same molecule?
Its relative viability is 0.963.

What about the relative viability ([13]; first compound 1.265 µM) of the same molecule?
Its relative viability is 0.829.

What about the relative viability ([14]; first compound 0.04 µM) of the same molecule?
The relative viability was 0.764.

And the relative viability ([14]; first compound 0.1265 µM)?
Its relative viability is 0.81.

And the relative viability ([14]; first compound 0.4 µM)?
Its relative viability is 0.734.

And the relative viability ([14]; first compound 1.265 µM)?
The relative viability was 0.741.

And the relative viability ([15]; first compound 0.04 µM)?
The relative viability was 0.89.

What about the relative viability ([15]; first compound 0.1265 µM) of the same molecule?
The relative viability was 1.09.

What about the relative viability ([15]; first compound 0.4 µM) of the same molecule?
Its relative viability is 1.01.

What about the relative viability ([15]; first compound 1.265 µM) of the same molecule?
The relative viability was 0.654.

What about the relative viability ([16]; first compound 0.04 µM) of the same molecule?
The relative viability was 1.05.

What about the relative viability ([16]; first compound 0.1265 µM) of the same molecule?
The relative viability was 1.08.

And the relative viability ([16]; first compound 0.4 µM)?
The relative viability was 1.09.

And the relative viability ([16]; first compound 1.265 µM)?
Its relative viability is 1.52.

And the relative viability ([17]; first compound 0.04 µM)?
The relative viability was 0.762.

What about the relative viability ([17]; first compound 0.1265 µM) of the same molecule?
The relative viability was 0.947.

What about the relative viability ([17]; first compound 0.4 µM) of the same molecule?
Its relative viability is 0.799.

And the relative viability ([17]; first compound 1.265 µM)?
Its relative viability is 0.508.

And the relative viability ([18]; first compound 0.04 µM)?
Its relative viability is 1.16.

And the relative viability ([18]; first compound 0.1265 µM)?
Its relative viability is 1.01.

And the relative viability ([18]; first compound 0.4 µM)?
The relative viability was 0.898.

What about the relative viability ([18]; first compound 1.265 µM) of the same molecule?
The relative viability was 0.877.

What about the relative viability ([19]; first compound 0.04 µM) of the same molecule?
The relative viability was 0.927.

What about the relative viability ([19]; first compound 0.4 µM) of the same molecule?
Its relative viability is 0.789.

And the relative viability ([19]; first compound 1.265 µM)?
Its relative viability is 0.835.

What about the relative viability ([20]; first compound 0.04 µM) of the same molecule?
Its relative viability is 0.712.

And the relative viability ([20]; first compound 0.1265 µM)?
The relative viability was 1.26.

What about the relative viability ([20]; first compound 0.4 µM) of the same molecule?
Its relative viability is 0.639.

What about the relative viability ([20]; first compound 1.265 µM) of the same molecule?
Its relative viability is 0.561.

What about the relative viability ([21]; first compound 0.04 µM) of the same molecule?
Its relative viability is 0.438.

What about the relative viability ([21]; first compound 0.1265 µM) of the same molecule?
Its relative viability is 0.447.

And the relative viability ([21]; first compound 0.4 µM)?
Its relative viability is 0.448.

What about the relative viability ([21]; first compound 1.265 µM) of the same molecule?
Its relative viability is 0.323.

What about the relative viability ([22]; first compound 0.04 µM) of the same molecule?
Its relative viability is 0.994.

And the relative viability ([22]; first compound 0.1265 µM)?
The relative viability was 1.09.

And the relative viability ([22]; first compound 0.4 µM)?
Its relative viability is 1.06.

And the relative viability ([22]; first compound 1.265 µM)?
Its relative viability is 1.01.
